# In BigSolDB 2.1:
structure (smiles),measurement,setting,value
Clc1ccc(-c2c3nc(c(-c4ccc(Cl)cc4)c4ccc([nH]4)c(-c4ccc(Cl)cc4)c4nc(c(-c5ccc(Cl)cc5)c5ccc2[nH]5)C=C4)C=C3)cc1,solubility (mole fraction),"in ethanol, 293.2 K",1.27e-06
same,solubility (mole fraction),"in ethanol, 303.2 K",1.63e-06
same,solubility (mole fraction),"in ethanol, 313.2 K",1.93e-06
same,solubility (mole fraction),"in ethanol, 323.2 K",2.25e-06
same,solubility (mole fraction),"in ethanol, 333.2 K",2.63e-06
CC1(C)S[C@@H]2[C@H](N)C(=O)N2[C@H]1C(=O)O,solubility (mole fraction),"in water, 274.15 K",0.000132
same,solubility (mole fraction),"in water, 278.15 K",0.000143
same,solubility (mole fraction),"in water, 283.15 K",0.000159
same,solubility (mole fraction),"in water, 289.15 K",0.000173
same,solubility (mole fraction),"in water, 293.15 K",0.000183
same,solubility (mole fraction),"in water, 298.15 K",0.000203
same,solubility (mole fraction),"in water, 303.15 K",0.000226
C=C1CC[C@H](O)C/C1=C/C=C1\CCC[C@]2(C)[C@@H]([C@H](C)CCCC(C)C)CC[C@@H]12,solubility (mole fraction),"in water, 273.2 K",1.97e-07
same,solubility (mole fraction),"in water, 278.2 K",2.95e-07
same,solubility (mole fraction),"in water, 283.2 K",4.38e-07
same,solubility (mole fraction),"in water, 288.2 K",5.71e-07
same,solubility (mole fraction),"in water, 298.2 K",1.06e-06
COc1ccc([C@@H]2CC(=O)c3c(O)cc(O[C@@H]4O[C@H](CO[C@@H]5O[C@@H](C)[C@H](O)[C@@H](O)[C@H]5O)[C@@H](O)[C@H](O)[C@H]4O)cc3O2)cc1O,solubility (mole fraction),"in n-propanol, 293.15 K",0.000142
same,solubility (mole fraction),"in n-propanol, 298.15 K",0.000166
same,solubility (mole fraction),"in n-propanol, 303.15 K",0.00019
same,solubility (mole fraction),"in n-propanol, 308.15 K",0.000218
same,solubility (mole fraction),"in n-propanol, 313.15 K",0.000252
same,solubility (mole fraction),"in n-propanol, 318.15 K",0.000289
same,solubility (mole fraction),"in n-propanol, 323.15 K",0.000329
same,solubility (mole fraction),"in n-propanol, 328.15 K",0.000375
same,solubility (mole fraction),"in n-propanol, 333.15 K",0.000425
CCC1=C(C)CN(C(=O)NCCc2ccc(S(=O)(=O)NC(=O)NC3CCC(C)CC3)cc2)C1=O (configuration not stated),solubility (mole fraction),"in DMAc, 278.15 K",0.0106
same,solubility (mole fraction),"in DMAc, 283.15 K",0.0124
same,solubility (mole fraction),"in DMAc, 288.15 K",0.0147
same,solubility (mole fraction),"in DMAc, 293.15 K",0.017
same,solubility (mole fraction),"in DMAc, 298.15 K",0.0199
same,solubility (mole fraction),"in DMAc, 303.15 K",0.0227
same,solubility (mole fraction),"in DMAc, 308.15 K",0.0259
same,solubility (mole fraction),"in DMAc, 313.15 K",0.0298
same,solubility (mole fraction),"in DMAc, 318.15 K",0.0343
COc1cc(/C=C/C(=O)O)cc(OC)c1O,solubility (mole fraction),"in DMSO, 298.15 K",0.147
same,solubility (mole fraction),"in DMSO, 303.15 K",0.149
same,solubility (mole fraction),"in DMSO, 308.15 K",0.152
same,solubility (mole fraction),"in DMSO, 313.15 K",0.155
same,solubility (mole fraction),"in DMSO, 318.15 K",0.158
same,solubility (mole fraction),"in ethylene glycol, 298.15 K",0.00586
same,solubility (mole fraction),"in ethylene glycol, 303.15 K",0.0066
same,solubility (mole fraction),"in ethylene glycol, 308.15 K",0.0075
same,solubility (mole fraction),"in ethylene glycol, 313.15 K",0.00848
same,solubility (mole fraction),"in ethylene glycol, 318.15 K",0.0094
Nc1ccc(Cl)nn1,solubility (mole fraction),"in water, 293.65 K",6.28e-05
same,solubility (mole fraction),"in water, 296.05 K",7.6e-05
same,solubility (mole fraction),"in water, 303.05 K",0.000133
same,solubility (mole fraction),"in water, 308.65 K",0.000197
same,solubility (mole fraction),"in water, 323.35 K",0.000556
same,solubility (mole fraction),"in water, 328.45 K",0.000747
same,solubility (mole fraction),"in water, 333.15 K",0.000936
O=C1Nc2ccccc2C1=O,solubility (mole fraction),"in PEG-400, 298.15 K",0.0985
same,solubility (mole fraction),"in PEG-400, 308.15 K",0.109
same,solubility (mole fraction),"in PEG-400, 318.15 K",0.121
same,solubility (mole fraction),"in PEG-400, 328.15 K",0.132
same,solubility (mole fraction),"in PEG-400, 338.15 K",0.145
same,solubility (mole fraction),"in transcutol, 298.15 K",0.52
same,solubility (mole fraction),"in transcutol, 308.15 K",0.536
same,solubility (mole fraction),"in transcutol, 318.15 K",0.557
same,solubility (mole fraction),"in transcutol, 328.15 K",0.579
same,solubility (mole fraction),"in transcutol, 338.15 K",0.594
O=C1Nc2ccc(Cl)cc2C(c2ccccc2Cl)=NC1O (configuration not stated),solubility (mole fraction),"in PEG-200, 303.2 K",0.0958
same,solubility (mole fraction),"in water, 303.2 K",3e-06
O=c1cc[nH]c(=O)[nH]1,solubility (mole fraction),"in water, 298.15 K",0.000743
O=C1C[C@@H](c2ccc(O)cc2)Oc2cc(O)cc(O)c21,solubility (mole fraction),"in 1,4-dioxane, 298.15 K",0.0669
same,solubility (mole fraction),"in acetonitrile, 298.15 K",0.0473
same,solubility (mole fraction),"in water, 298.15 K",1e-06
CCCN1CCCC[C@H]1C(=O)Nc1c(C)cccc1C,solubility (mole fraction),"in acetone, 278.15 K",0.00654
same,solubility (mole fraction),"in acetone, 283.15 K",0.00793
same,solubility (mole fraction),"in acetone, 288.15 K",0.0098
same,solubility (mole fraction),"in acetone, 293.15 K",0.012
same,solubility (mole fraction),"in acetone, 298.15 K",0.0148
same,solubility (mole fraction),"in acetone, 303.15 K",0.0184
same,solubility (mole fraction),"in acetone, 308.15 K",0.023
same,solubility (mole fraction),"in acetone, 313.15 K",0.0266
same,solubility (mole fraction),"in acetone, 318.15 K",0.0344
